Test results published in PMC3734177, “Design, Synthesis, Evaluation and Thermodynamics of 1-Substituted Pyridylimidazo[1,5-a]Pyridine Derivatives as Cysteine Protease Inhibitors” (PLoS ONE, 2013).
Values after ≈ are worked out from the molar mass of the structure shown. Values joined by “and” are separate entries in the source; they are usually repeats but may differ in a detail not shown here. Equal entries are not always repeated. Where two headings read alike, the source gives them in different places.

Key:
papain [1] = molecular target: T1, papain (Carica papaya, UniProt P00784); assay: Cysteine protease inhibitory activity, papain with Bz-DL-Arg-pNA substrate; assay type: biochemical; conditions: for Type of inhibition: Lineweaver–Burk plot; for IC50: papain
T1 construct: To solutions of active papain (final concentration: 0.05 mM); purchased Sigma Chemical Co., St. Louis, MO, USA
T1 sequence (P00784 134-345): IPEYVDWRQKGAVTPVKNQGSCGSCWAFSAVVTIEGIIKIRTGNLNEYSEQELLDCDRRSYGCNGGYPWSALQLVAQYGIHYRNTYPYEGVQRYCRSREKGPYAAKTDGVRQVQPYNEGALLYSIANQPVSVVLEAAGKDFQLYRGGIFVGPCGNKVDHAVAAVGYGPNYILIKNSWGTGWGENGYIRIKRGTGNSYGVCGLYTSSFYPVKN
Method: The capacity of the 1-pyridylimidazo[1,5-a]pyridine derivatives to inhibit cysteine proteases was tested using papain as the model enzyme. The proteolytic activity of the reaction mixtures was determined using Bz-DL-Arg-pNA as the chromogenic substrate. To solutions of active papain (final concentration: 0.05 mM) were added concentrated solutions of the different derivatives to final concentrations of 0.2 mM. […] The same procedure was used at 32°C and 42°C for thermodynamics studies. The kinetic parameters for the substrate hydrolysis were determined by measuring the initial rate of enzymatic activity. The inhibition constant Ki was determined by Dixon method and also by the Lineweaver–Burk equation. The Km value was calculated from the double-reciprocal equation by fitting the data into the computer software Origin 6.1. The Lineweaver–Burk plot was used to determine the types of inhibition. For the kinetic analysis and rate constant determinations, the assays were carried out in triplicate, and the average value was considered throughout this work.

papain [2] = molecular target: T1, papain; assay: Thermodynamics analysis of papain inhibition (Van't Hoff); assay type: biochemical; conditions: Value at 37°C
Method: Free energy changes of inhibition of papain against 1- substituted pyridylimidazo[1,5-a] pyridine derivatives (ΔG) were determined by the equation, [drawing 1] (1)
Temperature dependence of the inhibition constants was used to determine the thermodynamic parameters. Changes in enthalpy (ΔH) were determined from the Van’t Hoff plots by using the equation, [drawing 2] (2)
Where ΔH is enthalpy change, R is gas constant, ΔS is entropy change and T is the absolute temperature. The entropy change was obtained from the equation, [drawing 3] (3)

[3] = system: Bacillus spp. (ATCC-14593); assay: MIC, micro dilution method; assay type: cell-based; conditions: ATCC14593; Bacillus sp.
Method: (§1) The disk diffusion method was used for the preliminary antibacterial evaluation of 1-pyridylimidazo[1,5-a]pyridine derivatives. The MIC50 of these derivatives, showing inhibition in the preliminary tests, were further determined by the microtitre plate technique using micro dilution method. In brief, the bacterial strains (S. aureus, P. vulgaris, Group D Streptococci, Bacillus sp., E. coli, P. aeruginosa and S. morganii)) were grown and diluted to 2×10^5 colony-forming units (CFU)/ml in sodium phosphate buffer (SPB) containing 0.03% Luria–Bertani (LB) broth. The synthesized derivatives were dissolved in DMSO and their serial dilution was performed in 50 µL of LB medium in 96-well microtitre plate to achieve the required concentrations (0.1–10 µg/ml) with bacterial inoculums (5×10^4 CFU per well). DMSO was taken as negative control and Ceftriaxone and clotrimazole were taken as positive control. After incubation at 37°C overnight, the MICs were taken as the lowest inhibitor concentration at which the bacterial growth was inhibited. The average of three values was calculated and that was the MIC for the test material and bacterial strain. […]

[4] = system: Escherichia coli (ATCC-25922); assay: MIC, micro dilution method; assay type: cell-based; conditions: ATCC25922, E. coli
Method: as §1

[5] = system: Proteus vulgaris (ATCC-29905); assay: MIC, micro dilution method; assay type: cell-based; conditions: ATCC29905, P. vulgaris
Method: as §1

[6] = system: Pseudomonas aeruginosa (ATCC-27853); assay: MIC, micro dilution method; assay type: cell-based; conditions: ATCC27853
Method: as §1

[7] = system: Staphylococcus aureus (ATCC-25923); assay: MIC, micro dilution method; assay type: cell-based; conditions: ATCC25923, S. aureus
Method: as §1

[8] = system: Bacillus spp. (ATCC-14593); assay: MBC, sub cultivation from MIC plate; assay type: cell-based; conditions: ATCC14593, Bacillus sp.
Method: (§2) After having determined the MICs, bacterial strains from the wells of the microtitre plate with no visible bacterial growth were removed for serial sub cultivation of 2 µl into another new microtitre plate containing 100 µl of broth per well and further incubated for 24 h. The lowest concentration with no visible growth was defined as MBC [28], indicating 99.5% killing of the original inoculum. The absorbance of each well was measured at a wavelength of 620 nm by Microplate Manager 4.0 (Bio-Rad laboratories) and compared with a blank. Solvent (DMSO) was used as a negative control. Three replicates were done for each compound and experiment was repeated two times.

[9] = system: Escherichia coli (ATCC-25922); assay: MBC, sub cultivation from MIC plate; assay type: cell-based; conditions: ATCC25922, E. coli
Method: as §2

[10] = system: Proteus vulgaris (ATCC-29905); assay: MBC, sub cultivation from MIC plate; assay type: cell-based; conditions: ATCC29905, P. vulgaris
Method: as §2

[11] = system: Pseudomonas aeruginosa (ATCC-27853); assay: MBC, sub cultivation from MIC plate; assay type: cell-based
Method: as §2

[12] = system: Staphylococcus aureus (ATCC-25923); assay: MBC, sub cultivation from MIC plate; assay type: cell-based; conditions: ATCC25923, S. aureus
Method: as §2

[13] = system: Bacillus spp. (ATCC-14593); assay: MIC, micro dilution method; assay type: cell-based; conditions: ATCC14593; Bacillus sp.; remark: listed apart in the source
[14] = system: Group D Streptococci (ATCC-12959); assay: MIC, micro dilution method; assay type: cell-based
Method: (§3) The disk diffusion method was used for the preliminary antibacterial evaluation of 1-pyridylimidazo[1,5-a]pyridine derivatives. The MIC50 of these derivatives, showing inhibition in the preliminary tests, were further determined by the microtitre plate technique using micro dilution method. In brief, the bacterial strains (S. aureus, P. vulgaris, Group D Streptococci, Bacillus sp., E. coli, P. aeruginosa and S. morganii)) were grown and diluted to 2×10^5 colony-forming units (CFU)/ml in sodium phosphate buffer (SPB) containing 0.03% Luria–Bertani (LB) broth. The synthesized derivatives were dissolved in DMSO and their serial dilution was performed in 50 µL of LB medium in 96-well microtitre plate to achieve the required concentrations (0.1–10 µg/ml) with bacterial inoculums (5×10^4 CFU per well). DMSO was taken as negative control and Ceftriaxone and clotrimazole were taken as positive control. After incubation at 37°C overnight, the MICs were taken as the lowest inhibitor concentration at which the bacterial growth was inhibited. The average of three values was calculated and that was the MIC for the test material and bacterial strain.
(§4) For the agar plate count method, 25 µL aliquots of bacteria at 1×10^5 CFU/ml in SPB containing 0.03% LB broth were incubated with 25 µL of diluted compounds for 2 h at 37°C. The mixtures of bacteria and compounds were serially diluted 10-fold with SPB and plated on LB plates that were incubated at 37°C overnight. Bacterial colonies were enumerated the following day.

[15] = system: Serratia morganii (ATCC- 31665); assay: MIC, micro dilution method; assay type: cell-based; conditions: ATCC31665
Method: as §3, §4

[16] = system: Group D Streptococci (ATCC-12959); assay: MBC, sub cultivation from MIC plate; assay type: cell-based
Method: as §2

[17] = system: Serratia morganii (ATCC- 31665); assay: MBC, sub cultivation from MIC plate; assay type: cell-based
Method: as §2

COc1ccc(-c2nc(-c3ccccn3)c3ccccn23)cc1 [Compound 3b, 1-(2-pyridyl)-3-(4-methoxyphenyl) imidazo[1,5-a]pyridine] gave a Ki (papain [1]; 32°C) of 26.2 µM, a Ki (papain [1]; 37°C) of 23.2 µM and a Ki (papain [1]; 42°C) of 21.1 µM. The Type of inhibition (papain [1]) was “Competitive”, the IC50 (papain [1]) was 21.2 µM and the “ΔG (free energy of binding)” value (papain [2]) was −6.55 Kcalmol^−1 and −6.55(±0.33) Kcalmol^−1. The “ΔS (entropy change)” value (papain [2]) was 71.4 (±2.46) Jmol-K^−1, the “ΔH (enthalpy change)” value (papain [2]; Van't Hoff plot) was −5.3(±0.80) KJmol^−1 and the MIC50 [3] was 0.9 µg/mL (≈ 2.99 µM). For the same compound, the MIC50 [4] was 1 µg/mL (≈ 3.32 µM), the MIC90 [4] was 1.8 µg/mL (≈ 5.97 µM) and the MIC50 [5] was 0.8 µg/mL (≈ 2.65 µM). It also gave an MIC90 [5] of 1.5 µg/mL (≈ 4.98 µM), an MIC50 [6] of 1 µg/mL (≈ 3.32 µM) and an MIC90 [6] of 1.8 µg/mL (≈ 5.97 µM). It also gave an MIC50 [7] of 1 µg/mL (≈ 3.32 µM), an MIC90 [7] of 1.9 µg/mL (≈ 6.3 µM) and an MBC ([8]; read-out: MBC50) of 1.7 µg/mL (≈ 5.64 µM). The MBC ([8]; read-out: MBC90) was 3.2 µg/mL (≈ 10.6 µM), the MBC ([9]; read-out: MBC50) was 1.9 µg/mL (≈ 6.3 µM) and the MBC ([9]; read-out: MBC90) was 2.9 µg/mL (≈ 9.62 µM). It also gave an MBC ([10]; read-out: MBC50) of 1.6 µg/mL (≈ 5.31 µM), an MBC ([10]; read-out: MBC90) of 3.2 µg/mL (≈ 10.6 µM) and an MBC ([11]; ATCC27853, read-out: MBC50) of 2.1 µg/mL (≈ 6.97 µM). For the same compound, the MBC ([11]; ATCC27853, read-out: MBC90) was 4 µg/mL (≈ 13.3 µM), the MBC ([12]; read-out: MBC50) was 2.3 µg/mL (≈ 7.63 µM) and the MBC ([12]; read-out: MBC90) was 4.5 µg/mL (≈ 14.9 µM). It also gave an MIC90 [13] of 1.7 µg/mL (≈ 5.64 µM).
For Clc1ccccc1-c1nc(-c2ccccn2)c2ccccn12 [Compound 3c, 1-(2-pyridyl)-3-(2-chlorophenyl) imidazo[1,5-a]pyridine], the Ki (papain [1]; 32°C) was 94.1 µM, the Ki (papain [1]; 37°C) was 90 µM and the Ki (papain [1]; 42°C) was 85.6 µM. The Type of inhibition (papain [1]) was “Non -Competitive”, the IC50 (papain [1]) was 94.5 µM and the “ΔG (free energy of binding)” value (papain [2]) was −5.71 Kcalmol^−1 and −5.71(±0.27) Kcalmol^−1. For the same compound, the “ΔS (entropy change)” value (papain [2]) was 69.88 (±2.65) Jmol-K^−1, the MIC50 [3] was 0.9 µg/mL (≈ 2.94 µM) and the MIC50 [4] was 0.6 µg/mL (≈ 1.96 µM). The MIC90 [4] was 1.1 µg/mL (≈ 3.6 µM), the MIC50 [5] was 1 µg/mL (≈ 3.27 µM) and the MIC90 [5] was 1.9 µg/mL (≈ 6.21 µM). It also gave an MIC50 [6] of 1.2 µg/mL (≈ 3.92 µM), an MIC90 [6] of 2.2 µg/mL (≈ 7.19 µM) and an MIC50 [7] of 1.2 µg/mL (≈ 3.92 µM). The MIC90 [7] was 2.4 µg/mL (≈ 7.85 µM), the MIC50 [14] was 0.9 µg/mL (≈ 2.94 µM) and the MIC90 [14] was 1.7 µg/mL (≈ 5.56 µM). It also gave an MIC50 [15] of 1 µg/mL (≈ 3.27 µM), an MIC90 [15] of 1.9 µg/mL (≈ 6.21 µM) and an MBC ([8]; read-out: MBC50) of 1.9 µg/mL (≈ 6.21 µM). For the same compound, the MBC ([8]; read-out: MBC90) was 3.8 µg/mL (≈ 12.4 µM), the MBC ([9]; read-out: MBC50) was 1.2 µg/mL (≈ 3.92 µM) and the MBC ([9]; read-out: MBC90) was 2.3 µg/mL (≈ 7.52 µM). It also gave an MBC ([16]; read-out: MBC50) of 1.8 µg/mL (≈ 5.89 µM), an MBC ([16]; read-out: MBC90) of 3.4 µg/mL (≈ 11.1 µM) and an MBC ([10]; read-out: MBC50) of 2.2 µg/mL (≈ 7.19 µM). It also gave an MBC ([10]; read-out: MBC90) of 4.3 µg/mL (≈ 14.1 µM), an MBC ([11]; ATCC27853, read-out: MBC50) of 2.4 µg/mL (≈ 7.85 µM) and an MBC ([11]; ATCC27853, read-out: MBC90) of 4 µg/mL (≈ 13.1 µM). It also gave an MBC ([17]; ATCC31665, read-out: MBC50) of 2.1 µg/mL (≈ 6.87 µM), an MBC ([17]; ATCC31665, read-out: MBC90) of 4.1 µg/mL (≈ 13.4 µM) and an MBC ([12]; read-out: MBC50) of 2.4 µg/mL (≈ 7.85 µM). It also gave an MBC ([12]; read-out: MBC90) of 4.7 µg/mL (≈ 15.4 µM) and an MIC90 [13] of 1.7 µg/mL (≈ 5.56 µM).
